The source of these data is ChEMBL document CHEMBL2311300, “Fragment-based design, synthesis, and biological evaluation of N-substituted-5-(4-isopropylthiophenol)-2-hydroxynicotinamide derivatives as novel Mcl-1 inhibitors” (Eur J Med Chem, 2013).

In assay [1] the target is T1, Induced myeloid leukemia cell differentiation protein Mcl-1 (Homo sapiens, UniProt Q07820). Kind of assay: Inhibition of biotin-Bim peptide binding to Mcl1 (unknown origin) expressed in Escherichia coli BL21 by ELISA.
In a further assay the test system is K562. The assay is described as follows: Induction of apoptosis in Mcl1 dependent human K562 cells after 48 hrs by Annexin V staining based flow cytometry. Format: functional, cell-based. Particulars: K562, 48 h; call rule not given here.
Assay [2] addresses T1, Induced myeloid leukemia cell differentiation protein Mcl-1. Kind of assay: Binding affinity to Mcl1 (unknown origin) expressed in Escherichia coli BL21 by ITC assay. For orientation: In ITC the heat of successive injections is recorded.
Assay [3] shares this target. The assay is described as follows: Inhibition of FAM-Bid peptide binding to Mcl1 (unknown origin) expressed in Escherichia coli BL21 by fluorescence polarization-based binding assay. On the technique in general: In fluorescence polarisation assays a small probe gives low polarisation when free and higher when bound to something large.
The next assay concerns RS4-11. Kind of assay: Induction of apoptosis in Bcl2 dependent human RS4:11 cells after 48 hrs by Annexin V staining based flow cytometry. In kind it is functional, cell-based. Particulars: RS4-11, 48 h. (A flow cytometer gives signals particle by particle.)

T1 sequence (Q07820 whole entry): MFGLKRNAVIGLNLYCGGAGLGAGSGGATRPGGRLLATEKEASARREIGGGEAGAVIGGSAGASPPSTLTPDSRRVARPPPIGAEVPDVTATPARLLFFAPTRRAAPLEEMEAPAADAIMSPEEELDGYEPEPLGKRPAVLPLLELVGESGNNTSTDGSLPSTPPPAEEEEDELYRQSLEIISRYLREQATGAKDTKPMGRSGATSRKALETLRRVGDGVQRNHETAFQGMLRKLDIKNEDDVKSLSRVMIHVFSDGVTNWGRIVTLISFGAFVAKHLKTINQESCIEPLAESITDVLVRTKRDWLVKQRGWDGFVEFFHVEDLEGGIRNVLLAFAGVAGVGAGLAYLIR

Broadly, the IC50 is the point on the concentration scale where inhibition reaches its midpoint. The Ki is the dissociation constant of the complex between target and ligand, obtained from inhibition or displacement. As a reminder, the Kd is the concentration at which binding is half-saturated. `CC(C)c1ccc(Sc2cnc(O)c(C(=O)NCc3ccccc3)c2)cc1`: the values for the IC50 (in assay [1]; in the assay on K562) were 0.054 µM and 0.84 µM, respectively. The same compound had a Ki in assay [1] of 0.0537 µM. Further, binding in assay [2] was put at a Kd of 0.98 µM.
For `N#Cc1cc(Sc2ccc(N)cc2)c[nH]c1=O`, in assay [3] (read-out: IC50), the IC50 stood at 133 µM. For the same compound, in assay [3] (read-out: Ki), the Ki is 5.31 µM.
In the case of `CN(C)CC[C@H](CSc1ccccc1)Nc1ccc(S(=O)(=O)NC(=O)c2ccc(N3CCN(Cc4ccccc4-c4ccc(Cl)cc4)CC3)cc2)cc1[N+](=O)[O-]` [ABT 737], the 50% inhibitory concentration (IC50) in the assay on K562 came to 16.4 µM; in the assay with RS4-11, 0.27 µM.
Regarding `N#Cc1cc(-c2cccc3ccccc23)cnc1O`, the concentration for half-maximal inhibition (IC50) in assay [3] (read-out: IC50) amounted to 158 µM. Further, in assay [3] (read-out: Ki), the Ki turned out to be 6.32 µM.
Regarding `CC(C)c1ccc(Sc2cc(C#N)c(=O)n(Cc3ccccc3)c2)cc1`, the IC50 in assay [3] (read-out: IC50) came to 383 µM. For the same compound, the Ki in assay [3] (read-out: Ki) is 15.3 µM.
Regarding `N#Cc1ccc[nH]c1=O`, the IC50 in assay [3] (read-out: IC50) was determined as 2730 µM. For the same compound, in assay [3] (read-out: Ki), the inhibition constant Ki was 109 µM.
As for `COc1ccnc(O)c1C#N`, in assay [3], the IC50 entry is recorded as “Not Active” and the Ki result is “Not Active”.
With `N#Cc1cc(Sc2ccccc2)c[nH]c1=O`, in assay [3] (read-out: IC50), the IC50 came to 82.2 µM. Also, the inhibition constant Ki in assay [3] (read-out: Ki) was 3.29 µM.
As for `CC(C)c1ccc(Sc2cnc(O)c(C(=O)NCCCc3ccccc3)c2)cc1`, in assay [1], the half-maximal inhibitory concentration (IC50) was 0.192 µM and affinity was put at a Ki of 0.191 µM.
As for `N#Cc1cc(-c2ccccc2)c[nH]c1=O`, the 50% inhibitory concentration (IC50) in assay [3] (read-out: IC50) was 261 µM. For the same compound, the Ki in assay [3] (read-out: Ki) was 10.4 µM.
For `O=C1C(=O)c2cccc3cccc1c23` [ACENAPHTHOQUINONE], in that order: 1420 µM and 57 µM.
As to `N#Cc1cc(Sc2ccc(Br)cc2)c[nH]c1=O`, in assay [3] (read-out: IC50), the IC50 amounted to 121 µM. Also, the Ki in assay [3] (read-out: Ki) turned out to be 4.83 µM.
In the same order, the values of `N#CC(C#N)=c1c(=O)c2cccc3cccc1c32` are 71.5 µM and 2.85 µM.
In assay [1], `CC(C)NC(=O)c1cc(Sc2ccc(C(C)C)cc2)c[nH]c1=O` had an IC50 of 0.501 µM and an inhibition constant Ki of 0.468 µM.
`Cc1ccc(Sc2cnc(O)c(C#N)c2)cc1`: the IC50 in assay [3] (read-out: IC50) was found to be 63.1 µM. Besides, in assay [3] (read-out: Ki), the Ki worked out at 2.52 µM.
For the compound `CC(C)c1ccc(Sc2c[nH]c(=O)c(C#N)c2)cc1`, the IC50 was found to be 0.89 µM in assay [1] and 21.5 µM in assay [3] (read-out: IC50). Also, the inhibition constant Ki in assay [1] was 0.891 µM; in assay [3] (read-out: Ki) it was 0.86 µM.
In assay [1], `N#CC1=C2C(=NC1=O)c1cccc3c(N4CCSCC4)ccc2c13` gave an IC50 of 0.046 µM and a Ki of 0.0457 µM.
For `N#Cc1cc(-c2ccc(-c3ccccc3)cc2)cnc1O`, in assay [3] (read-out: IC50), the half-maximal inhibitory concentration (IC50) was found to be 316 µM. The inhibitory constant (Ki) in assay [3] (read-out: Ki) came to 12.6 µM.
For `N#Cc1cc(-c2ccc(Cl)cc2)c[nH]c1=O`, in that order: 205 µM and 8.19 µM.
For `CCC(C)(C)c1ccc(Sc2cnc(O)c(C#N)c2)cc1`, in that order: 178 µM and 7.09 µM.
For the compound `Cc1cc2c(C(C)C)c(O)c(O)c(C=O)c2c(O)c1-c1c(C)cc2c(C(C)C)c(O)c(O)c(C=O)c2c1O` [GOSSYPOL], the half-inhibitory concentration (IC50) in assay [1] amounted to 0.17 µM; in assay [3] (read-out: IC50), 4.8 µM. In addition, the inhibition constant (Ki) in assay [1] is 0.214 µM; in assay [3] (read-out: Ki), 0.19 µM.
Take `CCCCNC(=O)c1cc(Sc2ccc(C(C)C)cc2)c[nH]c1=O`: in assay [1], the IC50 stood at 0.241 µM and the affinity, expressed as Ki, was 0.224 µM.
